In US20260083865A1, “PROSTATE SPECIFIC MEMBRANE ANTIGEN (PSMA) LIGANDS AND USE THEREOF” (priority 2022, published 2026):
Each block holds one compound with its values, some of them ahead of it. Numbered stars: 1 amine (or outer) side, 2 acyl side, 3 side chain; on linkers, the order of the positions; unused ones are H or OH. Bridge positions count the residues as written; N and C are the ends. Square brackets hold non-standard residues; d marks the D form. Side chains are listed from the residue outwards. Peptide text beside a SMILES is read from it. * marks the point of attachment. TtdsdLys(DOTA)NH2 = NC(=O)[C@@H](CCCCNC(=O)CN1CCN(CC(=O)O)CCN(CC(=O)O)CCN(CC(=O)O)CC1)NC(=O)CCC(=O)NCCCOCCOCCOCCCN*; X7 = O=C(O)CN1CCN(CC(=O)O)CCN(CC(=O)NC2CCN(CC(=O)*)CC2)CCN(CC(=O)O)CC1; X3 = O=C(O)CN1CCN(CC(=O)O)CCN(CC(=O)NCCCOCCOCCOCCCN*)CCN(CC(=O)O)CC1; DOTA = O=C(O)CN1CCN(CC(=O)O)CCN(CC(=O)*)CCN(CC(=O)O)CC1; Phe(3-Cl) = N[C@@H](Cc1cccc(Cl)c1)C(=O)O; Phe(4-Cl) = N[C@@H](Cc1ccc(Cl)cc1)C(=O)O; Isobutyryl(2-OH) = CC(C)(O)C(=O)*; X1 = O=C(CC1CCN([*:1])CC1)[*:2]; Suc = O=C(CCC(=O)[*:2])[*:1]; Tle = CC(C)(C)[C@H](N)C(=O)O; Nle = CCCC[C@H](N)C(=O)O; Hexanoyl = CCCCCC(=O)*; Aib = CC(C)(N)C(=O)O; CO = O=C([*:1])[*:2]; NHBu = CCCCN*

Columns and labels:
[1] = biological target: T1, PSMA-expressing C4-2 cells (Homo sapiens, UniProt Q04609); assay: FACS binding assay (competition with 50 nM PSM-0183); settings: pIC50 category of FACS binding, C4-2 cells; read-out: pIC50 [C4-2] CAT (converted)
T1 construct: PSMA-expressing C4-2 cells (ATCC, Cat. No. CRL-3314) were cultured in RPMI-1640; host or cells: C4-2 cells
T1 sequence (Q04609 whole entry): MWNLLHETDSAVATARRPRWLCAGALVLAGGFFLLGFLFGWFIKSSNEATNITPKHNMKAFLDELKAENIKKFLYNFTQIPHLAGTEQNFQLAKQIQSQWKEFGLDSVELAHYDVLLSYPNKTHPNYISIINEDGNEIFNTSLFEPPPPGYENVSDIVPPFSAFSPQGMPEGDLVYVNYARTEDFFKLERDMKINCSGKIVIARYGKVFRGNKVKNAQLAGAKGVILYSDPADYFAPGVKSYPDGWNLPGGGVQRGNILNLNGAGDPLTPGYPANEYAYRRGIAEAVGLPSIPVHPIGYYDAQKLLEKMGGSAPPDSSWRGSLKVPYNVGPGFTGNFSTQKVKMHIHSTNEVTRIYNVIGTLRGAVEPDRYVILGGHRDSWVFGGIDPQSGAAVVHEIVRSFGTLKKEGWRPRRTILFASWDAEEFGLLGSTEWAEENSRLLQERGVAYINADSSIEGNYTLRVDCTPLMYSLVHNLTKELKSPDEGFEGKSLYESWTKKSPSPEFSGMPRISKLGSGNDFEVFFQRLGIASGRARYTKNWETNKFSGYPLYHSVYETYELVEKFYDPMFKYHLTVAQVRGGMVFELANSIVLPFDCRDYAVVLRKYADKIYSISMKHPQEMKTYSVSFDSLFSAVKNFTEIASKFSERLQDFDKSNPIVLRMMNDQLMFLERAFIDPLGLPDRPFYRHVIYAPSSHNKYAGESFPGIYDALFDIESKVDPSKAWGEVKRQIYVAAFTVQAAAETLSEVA
In short: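 Competition format: fluorescent tracer PSM-0183 (50 nM) displaced from PSMA on C4-2 cells by a test compound titration over 1 h at 4 °C. Bound tracer was quantified as flow-cytometric AF488 median fluorescence after washing. Four-parameter logistic fits of MFI data gave IC50 and pIC50.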

[2] = biological target: T2, Fc-fusion protein of human PSMA (hPSMA-Fc) (Homo sapiens, UniProt Q04609); assay: Surface plasmon resonance assay (Biacore T200, single cycle kinetic); format: binding; settings: pKD category for PSMA SPR activity assay, hPSMA-Fc, 25° C.; read-out: pKD CAT (converted)
T2 construct: purchased Acro Biosystems PSA-H5264
T2 sequence (Q04609 44-750 limits assumed): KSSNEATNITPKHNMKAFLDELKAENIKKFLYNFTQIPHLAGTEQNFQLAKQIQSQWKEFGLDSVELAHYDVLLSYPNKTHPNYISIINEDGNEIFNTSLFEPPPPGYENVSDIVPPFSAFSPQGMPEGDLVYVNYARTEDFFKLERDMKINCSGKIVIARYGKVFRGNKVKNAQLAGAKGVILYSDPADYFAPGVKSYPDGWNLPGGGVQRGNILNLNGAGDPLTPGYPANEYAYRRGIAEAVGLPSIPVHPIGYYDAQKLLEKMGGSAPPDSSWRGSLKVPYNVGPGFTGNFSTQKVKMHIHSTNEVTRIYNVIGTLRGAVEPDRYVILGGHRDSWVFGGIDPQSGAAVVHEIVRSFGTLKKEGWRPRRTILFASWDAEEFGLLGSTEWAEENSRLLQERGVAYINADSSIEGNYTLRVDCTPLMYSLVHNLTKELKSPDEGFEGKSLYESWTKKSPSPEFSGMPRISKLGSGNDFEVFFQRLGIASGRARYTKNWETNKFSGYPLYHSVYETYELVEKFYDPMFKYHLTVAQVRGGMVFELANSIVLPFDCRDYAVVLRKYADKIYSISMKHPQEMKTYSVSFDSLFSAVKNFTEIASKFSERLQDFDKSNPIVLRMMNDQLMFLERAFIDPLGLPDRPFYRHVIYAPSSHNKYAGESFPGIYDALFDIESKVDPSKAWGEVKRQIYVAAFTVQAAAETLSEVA
In short: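 KD, expressed as pKD, came from 1:1 Langmuir fits of reference- and buffer-blank-subtracted SPR data. The runs were single-cycle kinetics at 25° C in HBST/0.1% DMSO over human PSMA-Fc, captured to ~1000 RU on a peptide-coated CM5 surface and regenerated with 10 mM glycine pH 1.5.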

SMILES: C[C@@H](O)[C@H](NC(=O)[C@@H](NC(=O)[C@@H]1CSSC[C@H](NC(=O)[C@H](Cc2ccc(Cl)cc2)NC(=O)C(C)(C)O)C(=O)N[C@@H](CCCCN)C(=O)N[C@@H](CCCNC(=N)N)C(=O)NC(C)(C)C(=O)N[C@@H](CC(N)=O)C(=O)N1)C(C)(C)C)C(N)=O [PSM-0461, Hib-Pcf-[Cys-Lys-Arg-Aib-Asn-Cys]-Tle-Thr-NH2] ({Isobutyryl(2-OH)}-[Phe(4-Cl)]CKR[Aib]NC[Tle]T-NH2; disulfide 2-7)
IC50 [1]: < 200 nM | Kd [2]: 12.6 to 126 nM

SMILES: CCCCCC(=O)N[C@H](C(=O)NC(C)(C)C(=O)N[C@@H](Cc1ccccc1)C(=O)N[C@H]1CSSC[C@@H](C(=O)N[C@H](C(=O)N[C@H](C(=O)NCCCOCCOCCOCCCNC(=O)CCC(=O)N[C@H](CCCCNC(=O)CN2CCN(CC(=O)O)CCN(CC(=O)O)CCN(CC(=O)O)CC2)C(N)=O)[C@@H](C)O)C(C)(C)C)NC(=O)[C@H](CC(N)=O)NC(=O)[C@H](C)NC(=O)[C@H](CCCNC(=N)N)NC(=O)[C@H](CCCCN)NC1=O)[C@@H](C)O [PSM-0462, Hex-Thr-Aib-Phe-[Cys-Lys-Arg-Ala-Asn-Cys]-Tle-Thr-Ttds-lys(DOTA)-NH2] (Hexanoyl-T[Aib]FCKRANC[Tle]T-{TtdsdLys(DOTA)NH2}; disulfide 4-9)
IC50 [1]: < 200 nM | Kd [2]: < 12.6 nM

SMILES: CC(=O)N[C@H](C(=O)NC(C)(C)C(=O)N[C@@H](Cc1ccccc1)C(=O)N[C@H]1CSSC[C@@H](C(=O)N[C@H](C(=O)N[C@H](C(N)=O)[C@@H](C)O)C(C)(C)C)NC(=O)[C@H](CC(N)=O)NC(=O)[C@H](CCCCNC(=O)CN2CCC(NC(=O)CN3CCN(CC(=O)O)CCN(CC(=O)O)CCN(CC(=O)O)CC3)CC2)NC(=O)[C@H](CCCNC(=N)N)NC(=O)[C@H](CCCCN)NC1=O)[C@@H](C)O [PSM-0464, Ac-Thr-Aib-Phe-[Cys-Lys-Arg-Lys(DOTA-APAc)-Asn-Cys]-Tle-Thr-NH2] (Ac-T[Aib]FCKRK(X7)NC[Tle]T-NH2; disulfide 4-9)
IC50 [1]: < 200 nM | Kd [2]: < 12.6 nM

SMILES: CC(=O)N[C@H](C(=O)NC(C)(C)C(=O)N[C@@H](Cc1ccccc1)C(=O)N[C@H]1CSSC[C@@H](C(=O)N[C@H](C(=O)N[C@H](C(N)=O)[C@@H](C)O)C(C)(C)C)NC(=O)[C@H](CC(N)=O)NC(=O)[C@H](CCCCNC(=O)CCC(=O)NCCCOCCOCCOCCCNC(=O)CN2CCN(CC(=O)O)CCN(CC(=O)O)CCN(CC(=O)O)CC2)NC(=O)[C@H](CCCNC(=N)N)NC(=O)[C@H](CCCCN)NC1=O)[C@@H](C)O [PSM-0465, Ac-Thr-Aib-Phe-[Cys-Lys-Arg-Lys(DOTA-Ttds)-Asn-Cys]-Tle-Thr-NH2] (Ac-T[Aib]FCKRK([Suc-X3])NC[Tle]T-NH2; disulfide 4-9)
IC50 [1]: < 200 nM | Kd [2]: < 12.6 nM

Continued, values first:

IC50 [1]: 200 to 1260 nM | Kd [2]: < 12.6 nM
SMILES: CC(=O)NCCCC[C@@H]1NC(=O)[C@@H](NC(=O)[C@H](Cc2ccc(Cl)cc2)NC(=O)C(C)(C)NC(=O)[C@@H](NC(=O)CC2CCN(C(=O)CN3CCN(CC(=O)O)CCN(CC(=O)O)CCN(CC(=O)O)CC3)CC2)[C@@H](C)O)CSSC[C@@H](C(=O)N[C@H](C(=O)N[C@H](C(N)=O)[C@@H](C)O)C(C)(C)C)NC(=O)[C@H](CC(N)=O)NC(=O)C(C)(C)NC(=O)[C@H](CCCNC(=N)N)NC1=O [PSM-0466, DOTA-Cmp-Thr-Aib-Pcf-[Cys-Lys(Ac)-Arg-Aib-Asn-Cys]-Tle-Thr-NH2] ({DOTA}-[X1]T[Aib][Phe(4-Cl)]CK(Ac)R[Aib]NC[Tle]T-NH2; disulfide 5-10)

IC50 [1]: < 200 nM | Kd [2]: 12.6 to 126 nM
SMILES: CCCC[C@H](NC(=O)[C@@H]1CSSC[C@H](NC(=O)[C@H](Cc2ccccc2)NC(=O)[C@H](C)NC(=O)[C@H](CO)NC(C)=O)C(=O)N[C@@H](CCCCN)C(=O)N[C@@H](CCCNC(=N)N)C(=O)N[C@@H](C)C(=O)N[C@@H](CC(N)=O)C(=O)N1)C(=O)N[C@H](C(=O)N[C@@H](CC(=O)O)C(N)=O)[C@@H](C)O [PSM-0469, Ac-Ser-Ala-Phe-[Cys-Lys-Arg-Ala-Asn-Cys]-Nle-Thr-Asp-NH2] (Ac-SAFCKRANC[Nle]TD-NH2; disulfide 4-9)

IC50 [1]: < 200 nM | Kd [2]: < 12.6 nM
SMILES: CCCCNC(=O)N[C@H](C(=O)NC(C)(C)C(=O)N[C@@H](Cc1cccc(Cl)c1)C(=O)N[C@H]1CSSC[C@@H](C(=O)N[C@H](C(=O)N[C@H](C(=O)N2CCC(CC(=O)N[C@H](CCCCNC(=O)CN3CCN(CC(=O)O)CCN(CC(=O)O)CCN(CC(=O)O)CC3)C(N)=O)CC2)[C@@H](C)O)C(C)(C)C)NC(=O)[C@H](CC(N)=O)NC(=O)C(C)(C)NC(=O)[C@H](CCCNC(=N)N)NC(=O)[C@H](CCCCN)NC1=O)[C@@H](C)O [PSM-0470, nBuCAyl-Thr-Aib-Mcf-[Cys-Lys-Arg-Aib-Asn-Cys]-Tle-Thr-Cmp-lys(DOTA)-NH2] ({NHBu-CO}-T[Aib][Phe(3-Cl)]CKR[Aib]NC[Tle]T[X1][dK](DOTA)-NH2; disulfide 4-9)
